Experimental data reported in PMC5433425 (PeerJ, 2017).
In brackets after ≈: the same amount, converted by molar mass. Several values for one entry are separate records, joined by “and”; a condition that tells them apart may be missing. Equal entries are not always repeated. Where two headings read alike, the source gives them in different places.

Experiments:
[1] = tested on: E. coli AG100; assay: Time-kill kinetics (CFU); type: cell-based, Escherichia coli
Protocol: A drug-free control was included in the assay to monitor the normal growth of the strain. Cultures were sampled for CFU determination after 0, 1, 2, 3, 4, 5, 6, and 24 h of incubation at 37 °C with shaking. For CFU determination, 10-fold serial dilutions were made in a saline solution and 20 µl of each solution was placed onto the surface of a Mueller–Hinton agar plate. The colonies were counted after the incubation of the plates at 37 °C for 24 h. The limit of detection of the assay was 17 CFU/ml. Each assay was repeated at least twice.

[2] = tested on: Klebsiella pneumoniae FF4891; assay: MIC, antibacterial specificity; type: cell-based
[3] = tested on: Mycobacterium smegmatis mc2155 ATCC700084T; assay: MIC, antibacterial specificity; type: cell-based
[4] = tested on: Mycobacterium avium 104; assay: MIC, antibacterial specificity; type: cell-based
[5] = tested on: Mycobacterium tuberculosis H37Rv ATCC27294T; assay: MIC, antibacterial specificity; type: cell-based

CCCOc1ccc(-c2cc(OCCN3CCNCC3)c3ccccc3n2)cc1 [PQQ4R, 4-(2-(piperazin-1-yl)ethoxy)-2-(4-propoxyphenyl) quinolone]
time of exposure to reduce viability to zero [1]: 3 h and 4 h | MBC (minimal bactericidal concentration) ([1]; AG100): 640 µM (≈ 251 µg/mL) | viability ([1]; AG100, 80 μM (1/8 MIC)): 100% | viability ([1]; AG100, 160 μM (1/4 MIC)): 98% | viability ([1]; AG100, 320 μM (1/2 MIC)): 92% | viability ([1]; AG100, 640 μM (MIC)): 0% | CFU count Log10 ([1]; AG100, 1/2 MIC, T1 (1 h)): 3.836 | CFU count Mean ([1]; AG100, 1/2 MIC, T1 (1 h)): 6.8E+03 | CFU count Log10 ([1]; AG100, 1/2 MIC, T2 (2 h)): 3.5272 | CFU count Mean ([1]; AG100, 1/2 MIC, T2 (2 h)): 3.4E+03 | CFU count Log10 ([1]; AG100, 1/2 MIC, T3 (3 h)): 3.503 | CFU count Mean ([1]; AG100, 1/2 MIC, T3 (3 h)): 3.2E+03 | CFU count Log10 ([1]; AG100, 1/2 MIC, T4 (4 h)): 3.423 | CFU count Mean ([1]; AG100, 1/2 MIC, T4 (4 h)): 2.6E+03 | CFU count Log10 ([1]; AG100, 1/2 MIC, T5 (5 h)): 2.79 | CFU count Mean ([1]; AG100, 1/2 MIC, T5 (5 h)): 6.2E+02 | CFU count Log10 ([1]; AG100, 1/2 MIC, T6 (6 h)): 2.222 | CFU count Mean ([1]; AG100, 1/2 MIC, T6 (6 h)): 1.7E+02 | CFU count Mean ([1]; AG100, 1/2 MIC, T24 (24 h)): 2.0E+13 | CFU count - Strain dilution ([1]; AG100, 2xMIC, T1 (1 h)): 0 | CFU count - absolute values ([1]; AG100, 2xMIC, T1 (1 h)): 0 | CFU count Log10 ([1]; AG100, 2xMIC, T1 (1 h)): 0 | CFU count Mean ([1]; AG100, 2xMIC, T1 (1 h)): 0.0E+00 | CFU count - Strain dilution ([1]; AG100, 2xMIC, T2 (2 h)): 0 | CFU count - absolute values ([1]; AG100, 2xMIC, T2 (2 h)): 0 | CFU count Log10 ([1]; AG100, 2xMIC, T2 (2 h)): 0 | CFU count Mean ([1]; AG100, 2xMIC, T2 (2 h)): 0.0E+00 | CFU count - Strain dilution ([1]; AG100, 2xMIC, T3 (3 h)): 0 | CFU count - absolute values ([1]; AG100, 2xMIC, T3 (3 h)): 0 | CFU count Log10 ([1]; AG100, 2xMIC, T3 (3 h)): 0 | CFU count Mean ([1]; AG100, 2xMIC, T3 (3 h)): 0.0E+00 | CFU count - Strain dilution ([1]; AG100, 2xMIC, T4 (4 h)): 0 | CFU count - absolute values ([1]; AG100, 2xMIC, T4 (4 h)): 0 | CFU count Log10 ([1]; AG100, 2xMIC, T4 (4 h)): 0 | CFU count Mean ([1]; AG100, 2xMIC, T4 (4 h)): 0.0E+00 | CFU count - Strain dilution ([1]; AG100, 2xMIC, T5 (5 h)): 0 | CFU count - absolute values ([1]; AG100, 2xMIC, T5 (5 h)): 0 | CFU count Log10 ([1]; AG100, 2xMIC, T5 (5 h)): 0 | CFU count Mean ([1]; AG100, 2xMIC, T5 (5 h)): 0.0E+00 | CFU count - Strain dilution ([1]; AG100, 2xMIC, T6 (6 h)): 0 | CFU count - absolute values ([1]; AG100, 2xMIC, T6 (6 h)): 0 | CFU count Log10 ([1]; AG100, 2xMIC, T6 (6 h)): 0 | CFU count Mean ([1]; AG100, 2xMIC, T6 (6 h)): 0.0E+00 | CFU count - Strain dilution ([1]; AG100, 2xMIC, T24 (24 h)): 0 | CFU count - absolute values ([1]; AG100, 2xMIC, T24 (24 h)): 0 | CFU count Log10 ([1]; AG100, 2xMIC, T24 (24 h)): 0 | CFU count Mean ([1]; AG100, 2xMIC, T24 (24 h)): 0.0E+00 | time of exposure to reduce viability to zero ([1]; AG100, 2× MIC): 1 h | CFU count - Strain dilution ([1]; AG100, 4xMIC, T1 (1 h)): 0 | CFU count - absolute values ([1]; AG100, 4xMIC, T1 (1 h)): 0 | CFU count Log10 ([1]; AG100, 4xMIC, T1 (1 h)): 0 | CFU count Mean ([1]; AG100, 4xMIC, T1 (1 h)): 0.0E+00 | CFU count - Strain dilution ([1]; AG100, 4xMIC, T2 (2 h)): 0 | CFU count - absolute values ([1]; AG100, 4xMIC, T2 (2 h)): 0 | CFU count Log10 ([1]; AG100, 4xMIC, T2 (2 h)): 0 | CFU count Mean ([1]; AG100, 4xMIC, T2 (2 h)): 0.0E+00 | CFU count - Strain dilution ([1]; AG100, 4xMIC, T3 (3 h)): 0 | CFU count - absolute values ([1]; AG100, 4xMIC, T3 (3 h)): 0 | CFU count Log10 ([1]; AG100, 4xMIC, T3 (3 h)): 0 | CFU count Mean ([1]; AG100, 4xMIC, T3 (3 h)): 0.0E+00 | CFU count - Strain dilution ([1]; AG100, 4xMIC, T4 (4 h)): 0 | CFU count - absolute values ([1]; AG100, 4xMIC, T4 (4 h)): 0 | CFU count Log10 ([1]; AG100, 4xMIC, T4 (4 h)): 0 | CFU count Mean ([1]; AG100, 4xMIC, T4 (4 h)): 0.0E+00 | CFU count - Strain dilution ([1]; AG100, 4xMIC, T5 (5 h)): 0 | CFU count - absolute values ([1]; AG100, 4xMIC, T5 (5 h)): 0 | CFU count Log10 ([1]; AG100, 4xMIC, T5 (5 h)): 0 | CFU count Mean ([1]; AG100, 4xMIC, T5 (5 h)): 0.0E+00 | CFU count - Strain dilution ([1]; AG100, 4xMIC, T6 (6 h)): 0 | CFU count - absolute values ([1]; AG100, 4xMIC, T6 (6 h)): 0 | CFU count Log10 ([1]; AG100, 4xMIC, T6 (6 h)): 0 | CFU count Mean ([1]; AG100, 4xMIC, T6 (6 h)): 0.0E+00 | CFU count - Strain dilution ([1]; AG100, 4xMIC, T24 (24 h)): 0 | CFU count - absolute values ([1]; AG100, 4xMIC, T24 (24 h)): 0 | CFU count Log10 ([1]; AG100, 4xMIC, T24 (24 h)): 0 | CFU count Mean ([1]; AG100, 4xMIC, T24 (24 h)): 0.0E+00 | CFU count - Strain dilution ([1]; AG100, 8xMIC, T1 (1 h)): 0 | CFU count - absolute values ([1]; AG100, 8xMIC, T1 (1 h)): 0 | CFU count Log10 ([1]; AG100, 8xMIC, T1 (1 h)): 0 | CFU count Mean ([1]; AG100, 8xMIC, T1 (1 h)): 0.0E+00 | CFU count - Strain dilution ([1]; AG100, 8xMIC, T2 (2 h)): 0 | CFU count - absolute values ([1]; AG100, 8xMIC, T2 (2 h)): 0 | CFU count Log10 ([1]; AG100, 8xMIC, T2 (2 h)): 0 | CFU count Mean ([1]; AG100, 8xMIC, T2 (2 h)): 0.0E+00 | CFU count - Strain dilution ([1]; AG100, 8xMIC, T3 (3 h)): 0 | CFU count - absolute values ([1]; AG100, 8xMIC, T3 (3 h)): 0 | CFU count Log10 ([1]; AG100, 8xMIC, T3 (3 h)): 0 | CFU count Mean ([1]; AG100, 8xMIC, T3 (3 h)): 0.0E+00 | CFU count - Strain dilution ([1]; AG100, 8xMIC, T4 (4 h)): 0 | CFU count - absolute values ([1]; AG100, 8xMIC, T4 (4 h)): 0 | CFU count Log10 ([1]; AG100, 8xMIC, T4 (4 h)): 0 | CFU count Mean ([1]; AG100, 8xMIC, T4 (4 h)): 0.0E+00 | CFU count - Strain dilution ([1]; AG100, 8xMIC, T5 (5 h)): 0 | CFU count - absolute values ([1]; AG100, 8xMIC, T5 (5 h)): 0 | CFU count Log10 ([1]; AG100, 8xMIC, T5 (5 h)): 0 | CFU count Mean ([1]; AG100, 8xMIC, T5 (5 h)): 0.0E+00 | CFU count - Strain dilution ([1]; AG100, 8xMIC, T6 (6 h)): 0 | CFU count - absolute values ([1]; AG100, 8xMIC, T6 (6 h)): 0 | CFU count Log10 ([1]; AG100, 8xMIC, T6 (6 h)): 0 | CFU count Mean ([1]; AG100, 8xMIC, T6 (6 h)): 0.0E+00 | CFU count - Strain dilution ([1]; AG100, 8xMIC, T24 (24 h)): 0 | CFU count - absolute values ([1]; AG100, 8xMIC, T24 (24 h)): 0 | CFU count Log10 ([1]; AG100, 8xMIC, T24 (24 h)): 0 | CFU count Mean ([1]; AG100, 8xMIC, T24 (24 h)): 0.0E+00 | CFU count Log10 ([1]; AG100, MIC, T1 (1 h)): 3.007 | CFU count Mean ([1]; AG100, MIC, T1 (1 h)): 1.0E+03 | CFU count Log10 ([1]; AG100, MIC, T2 (2 h)): 2.336 | CFU count Mean ([1]; AG100, MIC, T2 (2 h)): 2.2E+02 | CFU count Log10 ([1]; AG100, MIC, T3 (3 h)): 1.222 | CFU count Mean ([1]; AG100, MIC, T3 (3 h)): 1.7E+01 | CFU count - Strain dilution ([1]; AG100, MIC, T4 (4 h)): 0 | CFU count - absolute values ([1]; AG100, MIC, T4 (4 h)): 0 | CFU count Log10 ([1]; AG100, MIC, T4 (4 h)): 0 | CFU count Mean ([1]; AG100, MIC, T4 (4 h)): 0.0E+00 | CFU count - Strain dilution ([1]; AG100, MIC, T5 (5 h)): 0 | CFU count - absolute values ([1]; AG100, MIC, T5 (5 h)): 0 | CFU count Log10 ([1]; AG100, MIC, T5 (5 h)): 0 | CFU count Mean ([1]; AG100, MIC, T5 (5 h)): 0.0E+00 | CFU count - Strain dilution ([1]; AG100, MIC, T6 (6 h)): 0 | CFU count - absolute values ([1]; AG100, MIC, T6 (6 h)): 0 | CFU count Log10 ([1]; AG100, MIC, T6 (6 h)): 0 | CFU count Mean ([1]; AG100, MIC, T6 (6 h)): 0.0E+00 | CFU count - Strain dilution ([1]; AG100, MIC, T24 (24 h)): 0 | CFU count - absolute values ([1]; AG100, MIC, T24 (24 h)): 0 | CFU count Log10 ([1]; AG100, MIC, T24 (24 h)): 0 | CFU count Mean ([1]; AG100, MIC, T24 (24 h)): 0.0E+00 | reduction in bacterial viability ([1]; AG100, half MIC): approx. 1 log | MIC [2]: >256 µg/mL | MIC [3]: 32 µg/mL (≈ 81.7 µM) | MIC [4]: 32 µg/mL (≈ 81.7 µM) | MIC [5]: 32 µg/mL (≈ 81.7 µM)
